One may read the Emax as the size of the effect at its maximum, as opposed to the concentration needed.

Experiment [1] concerns the target T1, human muscarinic M1 receptor (Homo sapiens, UniProt P11229).
T1 construct: expressed in transfected cells
T1 sequence (P11229 1-460): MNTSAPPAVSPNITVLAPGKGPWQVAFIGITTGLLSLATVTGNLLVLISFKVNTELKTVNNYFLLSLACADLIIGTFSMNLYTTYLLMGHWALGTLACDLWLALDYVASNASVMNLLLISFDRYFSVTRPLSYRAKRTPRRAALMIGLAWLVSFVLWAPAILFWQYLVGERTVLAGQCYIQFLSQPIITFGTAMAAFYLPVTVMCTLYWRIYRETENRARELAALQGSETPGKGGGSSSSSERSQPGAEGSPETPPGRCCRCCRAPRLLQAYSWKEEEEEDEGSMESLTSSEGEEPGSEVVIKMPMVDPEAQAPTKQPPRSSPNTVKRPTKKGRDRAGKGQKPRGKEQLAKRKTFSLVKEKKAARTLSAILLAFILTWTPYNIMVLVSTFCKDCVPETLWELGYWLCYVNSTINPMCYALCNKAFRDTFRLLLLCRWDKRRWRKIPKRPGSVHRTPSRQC
As to the kind of experiment: Alphascreen Surefire phospho-ERK1/2 functional assay, M1. It counts as cell-based. The following applies: for EC50 / M1 % Emax cf. ACh: CHO cells stably expressing human M1; for EC50: phospho-ERK1/2, read-out: pEC50 M1 (converted); for Emax: CHO, read-out: M1 % Emax cf. ACh, CHO cells stably expressing human M1; for Emax / M1 % Emax cf. ACh: Emax relative to ACh.

The target in experiment [2] is T2, human muscarinic M4 receptor (Homo sapiens, UniProt P08173).
T2 construct: expressed in transfected cells
T2 sequence (P08173 1-479): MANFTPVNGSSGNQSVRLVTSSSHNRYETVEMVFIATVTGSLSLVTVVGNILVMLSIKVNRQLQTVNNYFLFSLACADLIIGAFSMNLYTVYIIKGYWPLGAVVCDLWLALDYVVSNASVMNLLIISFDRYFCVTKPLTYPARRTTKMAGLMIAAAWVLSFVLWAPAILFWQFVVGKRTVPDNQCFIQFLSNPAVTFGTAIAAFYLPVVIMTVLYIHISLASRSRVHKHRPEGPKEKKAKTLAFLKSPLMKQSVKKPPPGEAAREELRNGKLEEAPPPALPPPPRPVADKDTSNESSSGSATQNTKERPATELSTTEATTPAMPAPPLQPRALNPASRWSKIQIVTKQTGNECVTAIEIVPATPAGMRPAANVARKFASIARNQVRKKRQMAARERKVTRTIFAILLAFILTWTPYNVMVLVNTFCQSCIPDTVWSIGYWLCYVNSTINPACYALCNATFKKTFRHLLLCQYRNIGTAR
Put plainly: Alphascreen Surefire phospho-ERK1/2 functional assay, M4. Type of experiment: cell-based. To be noted: for EC50 / M4 % Emax cf. ACh: CHO cells stably expressing human M4; for EC50: phospho-ERK1/2, read-out: pEC50 M4 (converted); for Emax: CHO, read-out: M4 % Emax cf. ACh, CHO cells stably expressing human M4; for Emax / M4 % Emax cf. ACh: Emax relative to ACh. In general terms: Bead proximity is the source of the signal in Alpha formats.
Procedure: (§1) CHO cells stably expressing the human muscarinic M1, M2, M3 or M4 receptor were plated (25K/well) onto 96-well tissue culture plates in MEM-alpha+10% dialysed FBS. Once adhered, cells were serum-starved overnight. Agonist stimulation was performed by the addition of 5 μL agonist to the cells for 5 min (37° C.). Media was removed and 50 μL of lysis buffer added. After 15 min, a 4 μL sample was transferred to 384-well plate and 7 μL of detection mixture added. Plates were incubated for 2 h with gentle agitation in the dark and then read on a PHERAstar plate reader.
(§2) pEC50 and Emax figures were calculated from the resulting data for each receptor subtype.

Experiment [3] has as its target T3, human muscarinic M2 receptor (Homo sapiens, UniProt P08172).
T3 sequence (P08172 1-466): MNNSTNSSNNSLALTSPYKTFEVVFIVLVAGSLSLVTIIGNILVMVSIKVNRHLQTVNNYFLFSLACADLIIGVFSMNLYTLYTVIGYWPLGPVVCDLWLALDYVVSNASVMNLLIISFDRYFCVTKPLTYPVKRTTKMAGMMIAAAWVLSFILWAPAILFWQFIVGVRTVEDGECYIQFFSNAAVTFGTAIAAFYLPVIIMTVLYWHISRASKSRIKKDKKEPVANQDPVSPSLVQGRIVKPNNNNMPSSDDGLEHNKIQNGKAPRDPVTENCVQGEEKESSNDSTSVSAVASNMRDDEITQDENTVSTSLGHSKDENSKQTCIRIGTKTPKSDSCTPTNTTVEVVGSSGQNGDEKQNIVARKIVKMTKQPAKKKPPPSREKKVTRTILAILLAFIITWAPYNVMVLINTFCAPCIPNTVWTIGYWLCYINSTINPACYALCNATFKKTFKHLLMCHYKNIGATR
Put plainly: Alphascreen Surefire phospho-ERK1/2 functional assay, M2. The following applies: for Emax: CHO, read-out: M2 % Emax cf. ACh, CHO cells stably expressing human M2; for Emax / M2 % Emax cf. ACh: Emax relative to ACh; for EC50: pEC50 M2, CHO cells stably expressing human M2.
Procedure: as §1, §2

For experiment [4], the target named is human muscarinic M3 receptor (Homo sapiens, UniProt P20309). As to the kind of experiment: Alphascreen Surefire phospho-ERK1/2 functional assay, M3. To be noted: for Emax: CHO, read-out: M3 % Emax cf. ACh, CHO cells stably expressing human M3; for Emax / M3 % Emax cf. ACh: Emax relative to ACh; for M3 % Emax cf. ACh / pEC50 M3: CHO cells stably expressing human M3; for pEC50 M3: phospho-ERK1/2.
Procedure: as §1, §2

Setting [5] is: CHO cells stably expressing human M2.

Chain of human muscarinic M3 receptor (P20309 whole entry): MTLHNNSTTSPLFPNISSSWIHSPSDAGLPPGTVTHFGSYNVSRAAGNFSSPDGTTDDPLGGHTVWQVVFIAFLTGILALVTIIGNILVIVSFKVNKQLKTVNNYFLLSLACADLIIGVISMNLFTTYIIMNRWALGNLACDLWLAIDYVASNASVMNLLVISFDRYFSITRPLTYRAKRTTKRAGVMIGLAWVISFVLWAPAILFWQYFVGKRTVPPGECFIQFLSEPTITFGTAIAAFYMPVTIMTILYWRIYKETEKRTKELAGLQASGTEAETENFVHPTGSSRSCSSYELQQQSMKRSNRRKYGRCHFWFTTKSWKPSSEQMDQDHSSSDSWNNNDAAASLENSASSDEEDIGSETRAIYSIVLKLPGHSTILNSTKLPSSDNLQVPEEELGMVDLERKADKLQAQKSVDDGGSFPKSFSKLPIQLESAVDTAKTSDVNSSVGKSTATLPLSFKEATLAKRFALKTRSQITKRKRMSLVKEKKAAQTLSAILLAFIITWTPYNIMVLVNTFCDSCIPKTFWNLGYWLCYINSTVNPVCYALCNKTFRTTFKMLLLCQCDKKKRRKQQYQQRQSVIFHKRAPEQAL

`CCOC(=O)N1CCC2(CC(N3CCC4(CC3)CC(=O)NC4CC)C2)C1` (single isomer, unassigned) [3-5 Isomer 2]: the EC50 in experiment [1] is 25.1 nM; in experiment [2] it was 3.16 nM; in experiment [3] (phospho-ERK1/2), greater than 20000 nM; in experiment [4] it was greater than 20000 nM. In addition, the Emax in experiment [1] is 96%; in experiment [2], 108%; in experiment [3] it was 16%; in experiment [4], 10%.
On to `COC(=O)N1CCC2(CC(N3CCC4(CC3)CC(=O)NC4Cc3ccccc3)C2)C1` (single isomer, unassigned) [3-7 Isomer 2], for which the EC50 in experiment [1] is 25.1 nM; in experiment [2], 79.4 nM; in experiment [3] (phospho-ERK1/2) it was greater than 20000 nM; in experiment [4] it was greater than 20000 nM. Also, the Emax in experiment [1] was determined as 101%; in experiment [2], 57%; in experiment [3] it was 11%; in experiment [4] it was 14%.
On to `CCOC(=O)N1CCC2(CC(N3CCC4(CC3)CC(=O)NC4Cc3ccccc3)C2)C1` (single isomer, unassigned) [3-8 Isomer 2], for which the EC50 is 12.6 nM in experiment [1], 79.4 nM in experiment [2], greater than 20000 nM in experiment [3] (phospho-ERK1/2) and greater than 20000 nM in experiment [4]. Also, the Emax in experiment [1] amounted to 110%; in experiment [2], 98%; in experiment [3], 33%; in experiment [4], 53%.
Take `CCOC(=O)N1CCC2(CC(N3CCC4(CNC(=O)C4)C(F)C3)C2)C1` (single isomer, unassigned) [3-9 Isomer 2]: the EC50 was 794 nM in experiment [1], greater than 20000 nM in experiment [2], greater than 20000 nM in experiment [3] (phospho-ERK1/2) and greater than 20000 nM in experiment [4]. The Emax in experiment [1] was determined as 62%; in experiment [2], 47%; in experiment [3], 4%; in experiment [4], 14%.
As to `COC(=O)N1CCC2(CC(N3CCC4(CC3)CNC(=O)O4)C2)C1` (single isomer, unassigned) [4-1 Isomer 2], the EC50 in experiment [1] is 126 nM; in experiment [2], 126 nM; in experiment [3] (phospho-ERK1/2), greater than 20000 nM; in experiment [4], greater than 20000 nM. Further, the Emax in experiment [1] was found to be 104%; in experiment [2] it was 86%; in experiment [3], 18%; in experiment [4], 11%.
`[2H]C([2H])([2H])OC(=O)N1CCC2(CC(N3CCC4(CC3)CNC(=O)O4)C2)C1` (single isomer, unassigned) [4-2 Isomer 2]: the EC50 in experiment [1] is 251 nM; in experiment [2] it was 200 nM; in experiment [3] (phospho-ERK1/2), greater than 20000 nM; in experiment [4], greater than 20000 nM. The Emax worked out at 113% in experiment [1], 76% in experiment [2], 13% in experiment [3] and 42% in experiment [4].
For the molecule `CCOC(=O)N1CCC2(CC(N3CCC4(CC3)CNC(=O)O4)C2)C1` (single isomer, unassigned) [4-3 Isomer 2], the “M1 % Emax cf. ACh” value in experiment [1] is reported as “(116) %”. For the same molecule, the EC50 was 20 nM in experiment [1], 39.8 nM in experiment [2], greater than 20000 nM in experiment [3] (phospho-ERK1/2) and greater than 20000 nM in experiment [4]. In addition, the “M4 % Emax cf. ACh” value in experiment [2] is “(78) %”. In addition, the Emax stood at 0% in experiment [3] and 7% in experiment [4].
Take `CCCN1CC2(CCN(C3CC4(CCN(C(=O)OCC)C4)C3)CC2)OC1=O` (single isomer, unassigned) [4-7 Isomer 2]: the EC50 in experiment [1] is 631 nM; in experiment [2], 501 nM; in experiment [3] (phospho-ERK1/2) it was greater than 20000 nM; in experiment [4], greater than 20000 nM. The Emax was determined as 104% in experiment [1], 69% in experiment [2], 41% in experiment [3] and 2% in experiment [4].
As for `CCOC(=O)N1CCC2(CC(N3CCC4(CC3)OC(=O)NC4C)C2)C1` (single isomer, unassigned) [4-11 Isomer 2], the EC50 was 158 nM in experiment [1], 79.4 nM in experiment [2], greater than 20000 nM in experiment [3] (phospho-ERK1/2) and greater than 20000 nM in experiment [4]. For the same molecule, the Emax in experiment [1] worked out at 114%; in experiment [2] it was 102%; in experiment [3] it was 7%; in experiment [4], 7%.
For the molecule `CCOC(=O)N1CCC2(CC(N3CCC4(CC3)OC(=O)NC4CC)C2)C1` (single isomer, unassigned) [4-12 Isomer 1], in experiment [1], the “M1 % Emax cf. ACh” value is reported as “(17) %” and the EC50 was greater than 20000 nM. Besides, in experiment [2], the “M4 % Emax cf. ACh” value is recorded as “(63) %” and the EC50 is 79.4 nM. Moreover, the “M2 % Emax cf. ACh” value in experiment [3] (setting [5]) is reported as “(50) %”. Besides, the EC50 in experiment [3] (phospho-ERK1/2) is greater than 20000 nM. For the same molecule, in experiment [4], the EC50 is greater than 20000 nM and the Emax worked out at 4%.
As to `CCOC(=O)N1CCC2(CC(N3CCC4(CC3)OC(=O)NC4CC)C2)C1` (single isomer, unassigned) [4-12 Isomer 3], in experiment [1], the “M1 % Emax cf. ACh” value was “(111) %” and the EC50 is 25.1 nM. Further, in experiment [2], the “M4 % Emax cf. ACh” value is recorded as “(118) %” and the EC50 was 6.31 nM. For the same molecule, the “M2 % Emax cf. ACh” value in experiment [3] (setting [5]) is reported as “(20) %”. In addition, the EC50 in experiment [3] (phospho-ERK1/2) is greater than 6310 nM. In experiment [4], the “M3 % Emax cf. ACh” value is given as “(8) %” and the “pEC50 M3” value is less than 4.7.
For the molecule `CCOC(=O)N1CCC2(CC(N3CCC4(CC3)OC(=O)NC4CC(F)(F)F)C2)C1` (single isomer, unassigned) [4-17 Isomer 1 (racemic)], the EC50 in experiment [1] was 126 nM; in experiment [2] it was 31.6 nM; in experiment [3] (phospho-ERK1/2), greater than 20000 nM; in experiment [4] it was greater than 20000 nM. The maximal response (Emax) came to 114% in experiment [1], 107% in experiment [2], 54% in experiment [3] and 14% in experiment [4].
Take `CCOC(=O)N1CCC2(CC(N3CCC4(CC3)OC(=O)N(C)C4CC)C2)C1` (single isomer, unassigned) [4-20 Isomer 3]: the “M1 % Emax cf. ACh” value in experiment [1] is listed as “(97) %”. For the same molecule, the EC50 was 158 nM in experiment [1], 31.6 nM in experiment [2], greater than 20000 nM in experiment [3] (phospho-ERK1/2) and greater than 20000 nM in experiment [4]. In addition, the “M4 % Emax cf. ACh” value in experiment [2] is “(59) %”. In addition, the Emax in experiment [3] was found to be 10%; in experiment [4] it was 4%.
With `CCOC(=O)N1CCC2(CC(N3CCC4(CC3)OC(=O)N(CC)C4CC)C2)C1` (single isomer, unassigned) [4-22 Isomer 3], in experiment [1], the “M1 % Emax cf. ACh” value is recorded as “(95) %” and the EC50 is 200 nM. For the same molecule, in experiment [2], the “M4 % Emax cf. ACh” value is recorded as “(80) %” and the EC50 is 31.6 nM. Further, the “M2 % Emax cf. ACh” value in experiment [3] (setting [5]) is “(3) %”. Further, the EC50 in experiment [3] (phospho-ERK1/2) is greater than 20000 nM. Besides, in experiment [4], the EC50 was greater than 20000 nM and the maximal response (Emax) came out at 1%.
Consider `CCOC(=O)N1CCC2(CC(N3CCC4(CC3)OC(=O)N(CC)C4CC)C2)C1` (single isomer, unassigned) [4-22 Isomer 4], for which, in experiment [1], the “M1 % Emax cf. ACh” value is given as “(104) %” and the EC50 was 200 nM. For the same molecule, in experiment [2], the “M4 % Emax cf. ACh” value is given as “(113) %” and the EC50 is 50.1 nM. In experiment [3] (setting [5]), the “M2 % Emax cf. ACh” value was “(23) %”. The “pEC50 M2” value in experiment [3] (CHO cells stably expressing human M2, phospho-ERK1/2) is less than 4.7. Besides, in experiment [4], the “M3 % Emax cf. ACh” value is reported as “(2) %” and the “pEC50 M3” value is given as less than 4.7.

Values taken from patent US10167284B2, “Spirocyclic compounds as agonists of the muscarinic M1 receptor and/or M4 receptor” (HEPTARES THERAPEUTICS LIMITED, priority 2015, dated 2019).
